Data reported in US9233964B2, “Sulfamide piperazine derivatives as protein tyrosine kinase inhibitors and pharmaceutical use therof” (LEO PHARMA A/S, priority 2011, dated 2016).

How the values were obtained:
Format in all cases: biochemical
[1] = target: T1, TYK2 (Homo sapiens, UniProt P29597); test: JAK kinase assay (HTRF, phosphorylation of synthetic peptide), TYK2; conditions: catalytic domain, ATP at Km (13 μM); read-out: TYK2 kinase inhibitory activity (EC50)
T1 construct: JAK1 (aa 850-1154) and TYK2 (aa 871-1187) are expressed with an N-terminally fused GST-tag; GST (N); purchased Carna Biosciences, Inc; host or cells: baculovirus expression system
T1 sequence (P29597 871-1187): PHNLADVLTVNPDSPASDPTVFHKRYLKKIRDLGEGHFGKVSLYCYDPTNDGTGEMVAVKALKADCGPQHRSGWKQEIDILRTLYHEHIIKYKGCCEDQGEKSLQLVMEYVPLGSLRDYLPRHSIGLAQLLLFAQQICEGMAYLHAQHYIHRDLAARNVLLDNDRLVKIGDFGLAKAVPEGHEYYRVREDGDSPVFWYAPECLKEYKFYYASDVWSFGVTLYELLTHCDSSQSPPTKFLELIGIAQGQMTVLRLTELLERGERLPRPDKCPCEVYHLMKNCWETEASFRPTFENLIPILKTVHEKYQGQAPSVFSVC
Summary of the method: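 1 µM biotinylated TK peptide at Km ATP in pH 7.0 Hepes, 20-30 min RT. EDTA stop; overnight streptavidin-XL665/cryptate HTRF read.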

[2] = target: T2, JAK3 (Homo sapiens, UniProt P52333); test: JAK kinase assay (HTRF, phosphorylation of synthetic peptide), JAK3; conditions: catalytic domain, ATP at Km (2 μM); read-out: JAK3 kinase inhibitory activity (EC50)
T2 construct: All four purified enzymes contain only the catalytic domain; His (N); purchased Carna Biosciences, Inc; host or cells: baculovirus expression system
T2 sequence (P52333 822-1111 limits assumed): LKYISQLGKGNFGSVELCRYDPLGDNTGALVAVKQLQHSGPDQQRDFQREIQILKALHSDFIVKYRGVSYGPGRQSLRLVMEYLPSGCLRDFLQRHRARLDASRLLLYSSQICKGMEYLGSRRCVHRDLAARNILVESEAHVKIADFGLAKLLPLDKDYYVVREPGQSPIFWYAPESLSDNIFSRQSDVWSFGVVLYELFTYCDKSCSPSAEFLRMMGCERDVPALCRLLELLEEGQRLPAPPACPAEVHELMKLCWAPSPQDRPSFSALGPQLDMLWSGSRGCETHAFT

[3] = target: T3, JAK1 (Homo sapiens, UniProt P23458); test: JAK kinase assay (HTRF, phosphorylation of synthetic peptide), JAK1; conditions: catalytic domain, ATP at Km (7 μM); read-out: JAK1 kinase inhibitory activity (EC50)
T3 construct: JAK1 (aa 850-1154) and TYK2 (aa 871-1187) are expressed with an N-terminally fused GST-tag; GST (N); purchased Carna Biosciences, Inc; host or cells: baculovirus expression system
T3 sequence (P23458 850-1154): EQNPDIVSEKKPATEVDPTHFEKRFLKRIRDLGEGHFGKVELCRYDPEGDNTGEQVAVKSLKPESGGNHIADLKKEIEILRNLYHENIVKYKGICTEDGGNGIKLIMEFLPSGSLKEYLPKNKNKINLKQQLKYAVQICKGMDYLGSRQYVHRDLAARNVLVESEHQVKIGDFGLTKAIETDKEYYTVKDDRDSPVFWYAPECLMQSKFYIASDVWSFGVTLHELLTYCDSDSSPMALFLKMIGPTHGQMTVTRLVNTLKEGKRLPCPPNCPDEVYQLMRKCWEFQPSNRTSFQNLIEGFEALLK
Summary of the method: (§1)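 Catalytic-domain human JAK1 (GST-tagged, aa 850-1154) or His-tagged JAK2, baculovirus-expressed, phosphorylated 1 µM biotinylated TK peptide at Km ATP (JAK1 7 µM, 10 mM MgCl2, 50 nM SEB; JAK2 4 µM, 5 mM MgCl2) in pH 7.0 Hepes, 20-30 min RT. EDTA stop; overnight streptavidin-XL665/cryptate HTRF read.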

[4] = target: T4, JAK2 (Homo sapiens, UniProt O60674); test: JAK kinase assay (HTRF, phosphorylation of synthetic peptide), JAK2; conditions: catalytic domain, ATP at Km (4 μM); read-out: JAK2 kinase inhibitory activity (EC50)
T4 construct: All four purified enzymes contain only the catalytic domain; His (N); purchased Carna Biosciences, Inc; host or cells: baculovirus expression system
T4 sequence (O60674 849-1124 limits assumed): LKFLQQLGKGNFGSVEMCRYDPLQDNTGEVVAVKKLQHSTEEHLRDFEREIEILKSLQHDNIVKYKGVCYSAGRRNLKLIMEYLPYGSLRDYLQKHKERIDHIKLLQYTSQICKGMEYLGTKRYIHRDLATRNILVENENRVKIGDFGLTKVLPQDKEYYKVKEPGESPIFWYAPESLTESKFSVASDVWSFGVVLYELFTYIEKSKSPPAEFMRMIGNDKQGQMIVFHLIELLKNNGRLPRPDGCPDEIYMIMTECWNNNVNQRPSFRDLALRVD
Summary of the method: as §1

Row | Compound | EC50 [1] | EC50 [2] | EC50 [3] | EC50 [4]
1 | CN(CC1CCC(F)(F)CC1)S(=O)(=O)N1CCN(c2ncnc3[nH]ccc23)CC12CC2 [Example 62, N-[(4,4-difluorocyclohexyl)methyl]-N-methyl-5-(7H-pyrrolo[2,3-d]pyrimidin-4-yl)-5,8-diazaspiro[2.5]octane-8-sulfonamide] | < 100 nM | < 100 nM | < 100 nM | < 100 nM
2 | CN(C[C@H]1CCCN1C(=O)CCC#N)S(=O)(=O)N1CCN(c2ncnc3[nH]ccc23)CC12CC2 [Example 187, N-[[(2R)-1-(3-cyanopropanoyl)pyrrolidin-2-yl]methyl]-N-methyl-5-(7H-pyrrolo[2,3-d]pyrimidin-4-yl)-5,8-diazaspiro[2.5]octane-8-sulfonamide] | 100 to 500 nM | 100 to 500 nM | < 100 nM | < 100 nM
3 | CN(CCOc1ccccc1)S(=O)(=O)N1CCN(c2ncnc3[nH]ccc23)CC12CC2 [Example 31, 7-(7H-Pyrrolo[2,3-d]pyrimidin-4-yl)-4,7-diaza-spiro[2.5]octane-4-sulfonic acid methyl-(2-phenoxy-ethyl)-amide] | 100 to 500 nM | 100 to 500 nM | < 100 nM | < 100 nM
4 | N#CCN(CC1CCS(=O)(=O)CC1)S(=O)(=O)N1CCN(c2ncnc3[nH]ccc23)CC12CC2 [Example 169, N-(cyanomethyl)-N-[(1,1-dioxothian-4-yl)methyl]-5-(7H-pyrrolo[2,3-d]pyrimidin-4-yl)-5,8-diazaspiro[2.5]octane-8-sulfonamide] | < 100 nM | < 100 nM | < 100 nM | < 100 nM
5 | CN(CC1CCN(C(=O)CCC#N)C1)S(=O)(=O)N1CCN(c2ncnc3[nH]ccc23)CC12CC2 (stereo not shown) [Example 126, N-[[1-(3-cyanopropanoyl)pyrrolidin-3-yl]methyl]-N-methyl-5-(7H-pyrrolo[2,3-d]pyrimidin-4-yl)-5,8-diazaspiro[2.5]octane-8-sulfonamide] | > 500 nM | 100 to 500 nM | < 100 nM | < 100 nM
6 | CN(CC1CCS(=O)(=O)CC1)S(=O)(=O)N1CCN(c2ncnc3[nH]ccc23)CC12CC2 [Example 168, N-[(1,1-dioxothian-4-yl)methyl]-N-methyl-5-(7H-pyrrolo[2,3-d]pyrimidin-4-yl)-5,8-diazaspiro[2.5]octane-8-sulfonamide] | < 100 nM | < 100 nM | < 100 nM | < 100 nM
7 | N#CCCCN(CCCc1ccccc1)S(=O)(=O)N1CCN(c2ncnc3[nH]ccc23)CC12CC2 [Example 57, 7-(7H-Pyrrolo[2,3-d]pyrimidin-4-yl)-4,7-diaza-spiro[2.5]octane-4-sulfonic acid (3-cyano-propyl)-(3-phenyl-propyl)-amide] | > 500 nM | < 100 nM | < 100 nM | < 100 nM
8 | O=S(=O)(N(CCn1ccnc1)C1CCC1)N1CCN(c2ncnc3[nH]ccc23)CC12CC2 [Example 104, N-cyclobutyl-N-(2-imidazol-1-ylethyl)-5-(7H-pyrrolo[2,3-d]pyrimidin-4-yl)-5,8-diazaspiro[2.5]octane-8-sulfonamide] | 100 to 500 nM | 100 to 500 nM | < 100 nM | < 100 nM
9 | N#CCCN(CC#N)S(=O)(=O)N1CCN(c2ncnc3[nH]ccc23)CC12CC2 [Example 171, N-(2-cyanoethyl)-N-(cyanomethyl)-5-(7H-pyrrolo[2,3-d]pyrimidin-4-yl)-5,8-diazaspiro[2.5]octane-8-sulfonamide] | < 100 nM | < 100 nM | < 100 nM | < 100 nM
10 | CN(C[C@H]1CCCN1S(C)(=O)=O)S(=O)(=O)N1CCN(c2ncnc3[nH]ccc23)CC12CC2 [Example 181, N-methyl-N-[[(2R)-1-methylsulfonylpyrrolidin-2-yl]methyl]-5-(7H-pyrrolo[2,3-d]pyrimidin-4-yl)-5,8-diazaspiro[2.5]octane-8-sulfonamide] | < 100 nM | < 100 nM | < 100 nM | < 100 nM
11 | CN(C1CCC1)S(=O)(=O)N1CCN(c2ncnc3[nH]ccc23)CC12CC2 [Example 98, N-cyclobutyl-N-methyl-5-(7H-pyrrolo[2,3-d]pyrimidin-4-yl)-5,8-diazaspiro[2.5]octane-8-sulfonamide] | 100 to 500 nM | 100 to 500 nM | < 100 nM | < 100 nM
12 | CC(C#N)N(C1COC1)S(=O)(=O)N1CCN(c2ncnc3[nH]ccc23)CC12CC2 (stereo not shown) [Example 117, N-(1-cyanoethyl)-N-(oxetan-3-yl)-5-(7H-pyrrolo[2,3-d]pyrimidin-4-yl)-5,8-diazaspiro[2.5]octane-8-sulfonamide] | 100 to 500 nM | < 100 nM | < 100 nM | < 100 nM
13 | CN(C(=O)CC1CCS(=O)(=O)C1)S(=O)(=O)N1CCN(c2ncnc3[nH]ccc23)CC12CC2 (stereo not shown) [Example 138, 2-(1,1-dioxothiolan-3-yl)-N-methyl-N-[[5-(7H-pyrrolo[2,3-d]pyrimidin-4-yl)-5,8-diazaspiro[2.5]octan-8-yl]sulfonyl]acetamide] | > 500 nM | 100 to 500 nM | < 100 nM | < 100 nM
14 | O=S(=O)(N(CCCc1ccccc1)CCc1ccccc1)N1CCN(c2ncnc3[nH]ccc23)CC12CC2 [Example 9, 7-(7H-Pyrrolo[2,3-d]pyrimidin-4-yl)-4,7-diaza-spiro[2.5]octane-4-sulfonic acid phenethyl-(3-phenyl-propyl)-amide] | > 500 nM | > 500 nM | > 500 nM | 100 to 500 nM
15 | CC(=O)N(CC1CCS(=O)(=O)C1)S(=O)(=O)N1CCN(c2ncnc3[nH]ccc23)CC12CC2 (stereo not shown) [Example 172, N-[(1,1-dioxothiolan-3-yl)methyl]-N-[[5-(7H-pyrrolo[2,3-d]pyrimidin-4-yl)-5,8-diazaspiro[2.5]octan-8-yl]sulfonyl]acetamide] | 100 to 500 nM | < 100 nM | < 100 nM | < 100 nM
16 | CN(C)S(=O)(=O)c1ccc(CN(C)S(=O)(=O)N2CCN(c3ncnc4[nH]ccc34)CC23CC3)o1 [Example 65, N-[[5-(dimethylsulfamoyl)-2-furyl]methyl]-N-methyl-5-(7H-pyrrolo[2,3-d]pyrimidin-4-yl)-5,8-diazaspiro[2.5]octane-8-sulfonamide] | 100 to 500 nM | 100 to 500 nM | < 100 nM | < 100 nM
17 | CN(C[C@@H]1CC(F)(F)CN1C(=O)CCO)S(=O)(=O)N1CCN(c2ncnc3[nH]ccc23)CC12CC2 [Example 155, N-[[(2S)-4,4-difluoro-1-(3-hydroxypropanoyl)pyrrolidin-2-yl]methyl]-N-methyl-5-(7H-pyrrolo[2,3-d]pyrimidin-4-yl)-5,8-diazaspiro[2.5]octane-8-sulfonamide] | < 100 nM | < 100 nM | < 100 nM | < 100 nM

The next lines start with the values.

Row | EC50 [1] | EC50 [2] | EC50 [3] | EC50 [4] | Compound
18 | > 500 nM | < 100 nM | < 100 nM | < 100 nM | N#CCCNS(=O)(=O)N1CCN(c2ncnc3[nH]ccc23)CC12CC2 [Int 40]
19 | > 500 nM | > 500 nM | 100 to 500 nM | 100 to 500 nM | CN(CC1CCCNC1)S(=O)(=O)N1CCN(c2ncnc3[nH]ccc23)CC12CC2 (stereo not shown) [Int 27]
20 | 100 to 500 nM | < 100 nM | < 100 nM | < 100 nM | CN(C[C@H]1CCCN1C(=O)CC#N)S(=O)(=O)N1CCN(c2ncnc3[nH]ccc23)CC12CC2 [Example 189, N-[[(2R)-1-(2-cyanoacetyl)pyrrolidin-2-yl]methyl]-N-methyl-5-(7H-pyrrolo[2,3-d]pyrimidin-4-yl)-5,8-diazaspiro[2.5]octane-8-sulfonamide]
21 | 100 to 500 nM | < 100 nM | < 100 nM | < 100 nM | CN(C[C@H]1CCCN1C=O)S(=O)(=O)N1CCN(c2ncnc3[nH]ccc23)CC12CC2 [Example 188, N-[[(2R)-1-formylpyrrolidin-2-yl]methyl]-N-methyl-5-(7H-pyrrolo[2,3-d]pyrimidin-4-yl)-5,8-diazaspiro[2.5]octane-8-sulfonamide]
22 | > 500 nM | 100 to 500 nM | < 100 nM | < 100 nM | CN(CC1CCNC1)S(=O)(=O)N1CCN(c2ncnc3[nH]ccc23)CC12CC2 (stereo not shown) [Int 25]
23 | > 500 nM | 100 to 500 nM | < 100 nM | < 100 nM | O=S(=O)(NC1CCC1)N1CCN(c2ncnc3[nH]ccc23)CC12CC2 [Int 30]
24 | > 500 nM | < 100 nM | < 100 nM | < 100 nM | CC(C)(C)OC(=O)NS(=O)(=O)N1CCN(c2ncnc3[nH]ccc23)CC12CC2 [Int 53]
25 | > 500 nM | 100 to 500 nM | < 100 nM | < 100 nM | O=S(=O)(NCCc1ccccc1)N1CCN(c2ncnc3[nH]ccc23)CC12CC2 [Int 5]
